Results from ChEMBL document CHEMBL3994564 (Medchemcomm, 2016).
Values after ≈ are worked out from the molar mass of the structure shown.

Tests used:
[1] = test system: Escherichia coli; experiment: Antibacterial activity against Escherichia coli ATCC 25922 after 24 hrs by MTT assay; type: functional; conditions: ATCC 25922, 24 h
[2] = test system: Pseudomonas aeruginosa; experiment: Antibacterial activity against Pseudomonas aeruginosa ATCC 27853 after 24 hrs by MTT assay; type: functional; conditions: ATCC 27853, 24 h
[3] = test system: Staphylococcus aureus; experiment: Antibacterial activity against Staphylococcus aureus ATCC 6538 after 24 hrs by MTT assay; type: functional; conditions: ATCC 6538, 24 h
[4] = test system: Bacillus subtilis; experiment: Antibacterial activity against Bacillus subtilis ATCC 530 after 24 hrs by MTT assay; type: functional; conditions: ATCC 530, 24 h
[5] = molecular target: T1, Beta-ketoacyl-[acyl-carrier-protein] synthase III (Escherichia coli K-12, UniProt P0A6R0); experiment: Inhibition of Escherichia coli FabH expressed in Escherichia coli DH10B using holo-ACP/acetyl-CoA as substrate assessed as incorporation of [3H] signal in final product preincubated with holo-ACP for 1 hr followed by acetyl-CoA addition measured after 25 mins by liquid scintillation counting method
T1 sequence (P0A6R0 whole entry): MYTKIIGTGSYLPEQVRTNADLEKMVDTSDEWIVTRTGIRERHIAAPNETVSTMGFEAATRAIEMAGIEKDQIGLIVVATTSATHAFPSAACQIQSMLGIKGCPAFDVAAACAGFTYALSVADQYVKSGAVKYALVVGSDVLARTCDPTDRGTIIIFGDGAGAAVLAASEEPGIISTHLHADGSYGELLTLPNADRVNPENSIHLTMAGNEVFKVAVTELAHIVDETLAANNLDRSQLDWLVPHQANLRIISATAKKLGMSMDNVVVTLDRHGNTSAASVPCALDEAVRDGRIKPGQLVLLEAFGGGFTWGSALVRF

[6] = test system: NIH3T3; experiment: Cytotoxic activity against mouse NIH/3T3 cells after 24 hrs by MTT assay; type: cell-based; conditions: NIH3T3, 24 h

Row | Compound | MIC [1] | MIC [2] | MIC [3] | MIC [4] | IC50 [5] | IC50 [6]
1 | O=C(N/N=C/c1ccc(O)c(O)c1)c1ccc2c(c1)OCCCO2 | 12.5 µg/mL (≈ 38.1 µM) | 12.5 µg/mL (≈ 38.1 µM) | 25 µg/mL (≈ 76.1 µM) | 25 µg/mL (≈ 76.1 µM) | 7.8 µM | 102 µM
2 | CN(C)c1ccc(/C=N/NC(=O)c2ccc3c(c2)OCCCO3)c(O)c1 | 12.5 µg/mL (≈ 35.2 µM) | 12.5 µg/mL (≈ 35.2 µM) | 25 µg/mL (≈ 70.3 µM) | 50 µg/mL (≈ 141 µM) | 6.7 µM | 203 µM
3 | O=C(N/N=C/c1ccc(-c2ccccc2)cc1)c1ccc2c(c1)OCCCO2 | 3.13 µg/mL (≈ 8.4 µM) | 6.25 µg/mL (≈ 16.8 µM) | 12.5 µg/mL (≈ 33.6 µM) | 6.25 µg/mL (≈ 16.8 µM) | 4.7 µM | 146 µM
4 | C(=N\C1CCCCC1)/c1ccc2c(c1)OCCCO2 |  |  |  |  | 1.6 µM | 
5 | O=C(N/N=C/c1cc([N+](=O)[O-])ccc1O)c1ccc2c(c1)OCCCO2 | 6.25 µg/mL (≈ 17.5 µM) | 3.13 µg/mL (≈ 8.76 µM) | 6.25 µg/mL (≈ 17.5 µM) | 3.13 µg/mL (≈ 8.76 µM) | 3.5 µM | 157 µM
6 | O=C(N/N=C/c1ccc(O)c([N+](=O)[O-])c1)c1ccc2c(c1)OCCCO2 | 6.25 µg/mL (≈ 17.5 µM) | 12.5 µg/mL (≈ 35 µM) | 25 µg/mL (≈ 70 µM) | 12.5 µg/mL (≈ 35 µM) | 8.9 µM | 198 µM
7 | O=C(N/N=C/c1cccs1)c1ccc2c(c1)OCCCO2 | > 100 µg/mL | > 100 µg/mL | > 100 µg/mL | > 100 µg/mL |  | 
8 | O=C(N/N=C/c1ccc(C(F)(F)F)cc1)c1ccc2c(c1)OCCCO2 | 25 µg/mL (≈ 68.6 µM) | 12.5 µg/mL (≈ 34.3 µM) | 12.5 µg/mL (≈ 34.3 µM) | 25 µg/mL (≈ 68.6 µM) | 12.4 µM | 104 µM
9 | O=C(N/N=C/c1cc([N+](=O)[O-])ccc1Cl)c1ccc2c(c1)OCCCO2 | 3.13 µg/mL (≈ 8.33 µM) | 3.13 µg/mL (≈ 8.33 µM) | 3.13 µg/mL (≈ 8.33 µM) | 6.25 µg/mL (≈ 16.6 µM) | 3.9 µM | 172 µM
10 | COc1ccc(/C=N/NC(=O)c2ccc3c(c2)OCCCO3)cc1OC | 3.13 µg/mL (≈ 8.78 µM) | 3.13 µg/mL (≈ 8.78 µM) | 6.25 µg/mL (≈ 17.5 µM) | 3.13 µg/mL (≈ 8.78 µM) | 4.1 µM | 126 µM
11 | NC[C@H]1O[C@H](O[C@H]2[C@H](O)[C@@H](O[C@H]3O[C@H](CO)[C@@H](O)[C@H](N)[C@H]3O)[C@H](N)C[C@@H]2N)[C@H](N)[C@@H](O)[C@@H]1O [BEKANAMYCIN] | 3.13 µg/mL (≈ 6.47 µM) | 3.13 µg/mL (≈ 6.47 µM) | 1.56 µg/mL (≈ 3.23 µM) | 1.56 µg/mL (≈ 3.23 µM) | 5.6 µM | 
12 | Cc1ccc(/C=N/NC(=O)c2ccc3c(c2)OCCCO3)cc1 | 50 µg/mL (≈ 161 µM) | 50 µg/mL (≈ 161 µM) | > 100 µg/mL | 50 µg/mL (≈ 161 µM) |  | 
13 | O=C(N/N=C/c1ccccc1O)c1ccc2c(c1)OCCCO2 | 50 µg/mL (≈ 160 µM) | 50 µg/mL (≈ 160 µM) | 25 µg/mL (≈ 80 µM) | 12.5 µg/mL (≈ 40 µM) |  | 
14 | O=C(N/N=C/c1ccc(I)cc1)c1ccc2c(c1)OCCCO2 | 25 µg/mL (≈ 59.2 µM) | 25 µg/mL (≈ 59.2 µM) | 6.25 µg/mL (≈ 14.8 µM) | 12.5 µg/mL (≈ 29.6 µM) | 6.9 µM | 201 µM
15 | O=C(N/N=C/c1cc(Cl)ccc1O)c1ccc2c(c1)OCCCO2 | 12.5 µg/mL (≈ 36 µM) | 25 µg/mL (≈ 72.1 µM) | 50 µg/mL (≈ 144 µM) | 25 µg/mL (≈ 72.1 µM) | 13.2 µM | 111 µM
16 | O=C(N/N=C/c1cccc2ccccc12)c1ccc2c(c1)OCCCO2 | 3.13 µg/mL (≈ 9.04 µM) | 6.25 µg/mL (≈ 18 µM) | 6.25 µg/mL (≈ 18 µM) | 6.25 µg/mL (≈ 18 µM) | 5.2 µM | 130 µM
17 | O=C(N/N=C/c1ccc(F)cc1)c1ccc2c(c1)OCCCO2 | 12.5 µg/mL (≈ 39.8 µM) | 25 µg/mL (≈ 79.5 µM) | 25 µg/mL (≈ 79.5 µM) | 50 µg/mL (≈ 159 µM) | 32.5 µM | 126 µM
18 | O=C(N/N=C/c1ccc(Cl)cc1Cl)c1ccc2c(c1)OCCCO2 | 6.25 µg/mL (≈ 17.1 µM) | 6.25 µg/mL (≈ 17.1 µM) | 6.25 µg/mL (≈ 17.1 µM) | 12.5 µg/mL (≈ 34.2 µM) | 4.3 µM | 198 µM
19 | COc1cc(/C=N/NC(=O)c2ccc3c(c2)OCCCO3)cc(OC)c1O | 3.13 µg/mL (≈ 8.41 µM) | 6.25 µg/mL (≈ 16.8 µM) | 6.25 µg/mL (≈ 16.8 µM) | 3.13 µg/mL (≈ 8.41 µM) | 3.9 µM | 147 µM

Row | Compound | MIC [1] | MIC [2] | MIC [3] | MIC [4] | IC50 [5] | IC50 [6]
20 | O=C(N/N=C/c1ccccc1)c1ccc2c(c1)OCCCO2 | 50 µg/mL (≈ 169 µM) | 50 µg/mL (≈ 169 µM) | > 100 µg/mL | > 100 µg/mL |  | 
21 | CN(C)c1ccc(/C=N/NC(=O)c2ccc3c(c2)OCCCO3)cc1 | 6.25 µg/mL (≈ 18.4 µM) | 12.5 µg/mL (≈ 36.8 µM) | 6.25 µg/mL (≈ 18.4 µM) | 6.25 µg/mL (≈ 18.4 µM) | 7.2 µM | 135 µM
22 | Cc1ccccc1/C=N/NC(=O)c1ccc2c(c1)OCCCO2 | > 100 µg/mL | 50 µg/mL (≈ 161 µM) | > 100 µg/mL | > 100 µg/mL |  | 
23 | O=C(N/N=C/c1c(F)cccc1Cl)c1ccc2c(c1)OCCCO2 | 12.5 µg/mL (≈ 35.8 µM) | 25 µg/mL (≈ 71.7 µM) | 25 µg/mL (≈ 71.7 µM) | 50 µg/mL (≈ 143 µM) | 20.6 µM | 164 µM
24 | O=C(N/N=C/c1ccc(O)cc1)c1ccc2c(c1)OCCCO2 | 50 µg/mL (≈ 160 µM) | 25 µg/mL (≈ 80 µM) | 12.5 µg/mL (≈ 40 µM) | 25 µg/mL (≈ 80 µM) | 38.7 µM | 178 µM
25 | O=C(N/N=C/c1ccc2ccccc2c1)c1ccc2c(c1)OCCCO2 | 6.25 µg/mL (≈ 18 µM) | 3.13 µg/mL (≈ 9.04 µM) | 6.25 µg/mL (≈ 18 µM) | 3.13 µg/mL (≈ 9.04 µM) | 4.6 µM | 114 µM
26 | O=C(N/N=C/c1cc(Cl)cc(Cl)c1O)c1ccc2c(c1)OCCCO2 | 12.5 µg/mL (≈ 32.8 µM) | 6.25 µg/mL (≈ 16.4 µM) | 12.5 µg/mL (≈ 32.8 µM) | 6.25 µg/mL (≈ 16.4 µM) | 5.4 µM | 184 µM
27 | O=C(N/N=C/c1ccccc1Br)c1ccc2c(c1)OCCCO2 | 50 µg/mL (≈ 133 µM) | 25 µg/mL (≈ 66.6 µM) | 50 µg/mL (≈ 133 µM) | 25 µg/mL (≈ 66.6 µM) |  | 
28 | O=C(N/N=C/C=C/c1ccccc1)c1ccc2c(c1)OCCCO2 | 50 µg/mL (≈ 155 µM) | 25 µg/mL (≈ 77.6 µM) | > 100 µg/mL | 50 µg/mL (≈ 155 µM) |  | 
29 | O=C(N/N=C/c1ccccc1Cl)c1ccc2c(c1)OCCCO2 | 25 µg/mL (≈ 75.6 µM) | 50 µg/mL (≈ 151 µM) | 50 µg/mL (≈ 151 µM) | > 100 µg/mL |  | 
30 | Cc1cccc(/C=N/NC(=O)c2ccc3c(c2)OCCCO3)c1 | 50 µg/mL (≈ 161 µM) | 25 µg/mL (≈ 80.6 µM) | > 100 µg/mL | 50 µg/mL (≈ 161 µM) |  | 
31 | COc1cc(/C=N/NC(=O)c2ccc3c(c2)OCCCO3)cc(OC)c1OC | 1.56 µg/mL (≈ 4.04 µM) | 3.13 µg/mL (≈ 8.1 µM) | 3.13 µg/mL (≈ 8.1 µM) | 1.56 µg/mL (≈ 4.04 µM) | 2 µM | 120 µM
32 | Cc1ccc(/C=N/NC(=O)c2ccc3c(c2)OCCCO3)o1 | > 100 µg/mL | > 100 µg/mL | > 100 µg/mL | > 100 µg/mL |  | 
33 | O=C(N/N=C/c1ccc(Cl)c([N+](=O)[O-])c1)c1ccc2c(c1)OCCCO2 | 3.13 µg/mL (≈ 8.33 µM) | 6.25 µg/mL (≈ 16.6 µM) | 6.25 µg/mL (≈ 16.6 µM) | 3.13 µg/mL (≈ 8.33 µM) | 4.4 µM | 147 µM
34 | O=C(N/N=C/c1ccc(F)c([N+](=O)[O-])c1)c1ccc2c(c1)OCCCO2 | 12.5 µg/mL (≈ 34.8 µM) | 6.25 µg/mL (≈ 17.4 µM) | 6.25 µg/mL (≈ 17.4 µM) | 6.25 µg/mL (≈ 17.4 µM) | 5.1 µM | 131 µM
35 | COc1ccc(/C=N/NC(=O)c2ccc3c(c2)OCCCO3)cc1 | 25 µg/mL (≈ 76.6 µM) | 12.5 µg/mL (≈ 38.3 µM) | 25 µg/mL (≈ 76.6 µM) | 50 µg/mL (≈ 153 µM) | 24.1 µM | 132 µM
36 | O=C(N/N=C/c1cc([N+](=O)[O-])ccc1F)c1ccc2c(c1)OCCCO2 | 6.25 µg/mL (≈ 17.4 µM) | 12.5 µg/mL (≈ 34.8 µM) | 12.5 µg/mL (≈ 34.8 µM) | 12.5 µg/mL (≈ 34.8 µM) | 9.5 µM | 168 µM
37 | O=Cc1ccccc1/C=N/NC(=O)c1ccc2c(c1)OCCCO2 | 25 µg/mL (≈ 77.1 µM) | 25 µg/mL (≈ 77.1 µM) | 25 µg/mL (≈ 77.1 µM) | 50 µg/mL (≈ 154 µM) |  | 
38 | O=C(N/N=C/c1ccc([N+](=O)[O-])cc1)c1ccc2c(c1)OCCCO2 | 25 µg/mL (≈ 73.2 µM) | 25 µg/mL (≈ 73.2 µM) | 50 µg/mL (≈ 146 µM) | 25 µg/mL (≈ 73.2 µM) | 17.6 µM | 185 µM
